Read-outs that look alike come from different tables or passages of the source.
Assays:
[1] = tested on: phosphorylated 4E-BP1 Thr37/46 (p4E-BP1 Thr37/46), mTORC1 activity, PC3 cells; assay: mTOR target engagement assay, immunofluorescent cell-based, p4E-BP1 Thr37/46 readout (mTORC1 activity); conditions: Homo sapiens, read-out: p4E-BP1 Thr37/46 IC50
Outline: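 Cell-based immunofluorescence in PC3 cells: serially diluted compounds (0.25% DMSO, 5% FBS) applied for ninety minutes at 37° C before fixation and overnight 4° C staining of p4E-BP1 Thr37/46. Untreated DMSO wells set maximal phosphorylation; IC50 obtained by logistic fitting.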

[2] = tested on: phosphorylated AKT Ser473 (pAKT S473), mTORC2 activity, PC3 cells; assay: mTOR target engagement assay, immunofluorescent cell-based, pAKT S473 readout (mTORC2 activity); conditions: Homo sapiens
Outline: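 After blocking, cells were stained overnight at 4 °C with anti-pAKT S473 antibody, then a fluorescent secondary; inhibition was read as reduced fluorescence intensity.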

[3] = PC-3, PC3 cells, compound treatment ninety minutes at 37° C.

**Q.** Which results are given for `COCc1c([C@@H]2C[C@H]3CC[C@@H](C2)N3C(=O)c2nnc[nH]2)nc2c(-c3ccc(-c4ccccc4)nc3)cnn2c1N` [Compound 5.4, ((1R,3s,5S)-3-(7-amino-6-(methoxymethyl)-3-(6-phenylpyridin-3-yl)pyrazolo[1,5-a]pyrimidin-5-yl)-8-azabicyclo[3.2.1]octan-8-yl)(4H-1,2,4-triazol-3-yl)methanone]?
**A.** IC50 [1, 3]: 1 to 100 nM; IC50 [2, 3]: 1 to 100 nM

**Q.** Which results are given for `CS(=O)(=O)c1c([C@@H]2C[C@H]3CC[C@@H](C2)N3C(=O)c2cc3cnccc3[nH]2)nc2c(-c3ccc(-c4ccccc4)nc3)cnn2c1N` [Compound 3.76, ((1R,3s,5S)-3-(7-amino-6-(methylsulfonyl)-3-(6-phenylpyridin-3-yl)pyrazolo[1,5-a]pyrimidin-5-yl)-8-azabicyclo[3.2.1]octan-8-yl)(1H-pyrrolo[3,2-c]pyridin-2-yl)methanone]?
**A.** IC50 ([1]; PC-3, Table 3-1, PC3 cells): 1 to 100 nM; IC50 ([2]; PC-3, Table 3-1, PC3 cells): 1 to 100 nM

**Q.** For `CCc1c([C@@H]2C[C@H]3CC[C@@H](C2)N3C(=O)c2nc(C)n[nH]2)nc2c(-c3ccc(-c4ccccc4)nc3)cnn2c1N` [Compound 5.9, ((1R,3s,5S)-3-(7-amino-6-ethyl-3-(6-phenylpyridin-3-yl)pyrazolo[1,5-a]pyrimidin-5-yl)-8-azabicyclo[3.2.1]octan-8-yl)(3-methyl-1H-1,2,4-triazol-5-yl)methanone], which IC50 [1, 3] is on record?
**A.** 1 to 100 nM

**Q.** And the IC50 [2, 3]?
**A.** 1 to 100 nM

**Q.** Which results are given for `Nc1c(C2CC2)c([C@H]2CC3CC[C@H](C2)N3C(=O)c2nnc[nH]2)nc2c(-c3cnc4c(c3)CCCC4O)cnn12` (stereo partly drawn) [Compound 7.54, ((1R,3s,5S)-3-(7-amino-6-cyclopropyl-3-(8-hydroxy-5,6,7,8-tetrahydroquinolin-3-yl)pyrazolo[1,5-a]pyrimidin-5-yl)-8-azabicyclo[3.2.1]octan-8-yl)(4H-1,2,4-triazol-3-yl)methanone]?
**A.** IC50 ([1]; PC-3, PC3 cells): 1 to 100 nM; IC50 ([2]; PC-3, PC3 cells): 1 to 100 nM

**Q.** How did the IC50 [1, 3] turn out when `COc1ccc2ncc(-c3cnn4c(N)c(C(C)=O)c([C@@H]5C[C@H]6CC[C@@H](C5)N6C(=O)c5nnc[nH]5)nc34)cc2c1` [Compound 1.1.125, 1-(5-((1R,3s,5S)-8-(4H-1,2,4-triazole-3-carbonyl)-8-azabicyclo[3.2.1]octan-3-yl)-7-amino-3-(6-methoxyquinolin-3-yl)pyrazolo[1,5-a]pyrimidin-6-yl)ethanone] was run?
**A.** 100 to 1000 nM

**Q.** And the IC50 [2, 3]?
**A.** 1000 to 10000 nM

**Q.** With `Cc1cnc(-c2ccc(-c3cnn4c(N)c(S(C)(=O)=O)c([C@H]5CC6CC[C@H](C5)N6C(=O)c5nnc[nH]5)nc34)cn2)s1` [Compound 3.180, ((1R,3s,5S)-3-(7-amino-6-(methylsulfonyl)-3-(6-(5-methylthiazol-2-yl)pyridin-3-yl)pyrazolo[1,5-a]pyrimidin-5-yl)-8-azabicyclo[3.2.1]octan-8-yl)(4H-1,2,4-triazol-3-yl)methanone] as the molecule, how does the IC50 ([1]; PC-3, Table 3-1, PC3 cells) read?
**A.** 1 to 100 nM

**Q.** And the IC50 ([2]; PC-3, Table 3-1, PC3 cells)?
**A.** 1 to 100 nM

**Q.** `CC(=O)c1c([C@@H]2C[C@H]3CC[C@@H](C2)N3C#N)nc2c(-c3ccc(-c4ccccc4)nc3)cnn2c1N` [Compound 8.71, (1R,3s,5S)-3-(6-acetyl-7-amino-3-(6-phenylpyridin-3-yl)pyrazolo[1,5-a]pyrimidin-5-yl)-8-azabicyclo[3.2.1]octane-8-carbonitrile] was tested. Which IC50 ([1]; PC-3, PC3 cells) did it give?
**A.** 100 to 1000 nM

**Q.** What about the IC50 ([2]; PC-3, PC3 cells) of the same molecule?
**A.** 100 to 1000 nM

**Q.** How did the IC50 ([1]; PC-3, Table 3-1, PC3 cells) turn out when `Nc1c(S(=O)(=O)C2CC2)c([C@@H]2C[C@H]3CC[C@@H](C2)N3C(=O)c2nnc[nH]2)nc2c(-c3ccc(-c4ccccc4)nc3)cnn12` [Compound 3.160, ((1R,3s,5S)-3-(7-amino-6-(cyclopropylsulfonyl)-3-(6-phenylpyridin-3-yl)pyrazolo[1,5-a]pyrimidin-5-yl)-8-azabicyclo[3.2.1]octan-8-yl)(4H-1,2,4-triazol-3-yl)methanone] was run?
**A.** 100 to 1000 nM

**Q.** And the IC50 ([2]; PC-3, Table 3-1, PC3 cells)?
**A.** 1 to 100 nM

**Q.** `CCC(=O)NNc1ccc(-c2cnn3c(N)c(C(C)=O)c([C@@H]4C[C@H]5CC[C@@H](C4)N5C(=O)CO)nc23)cn1` [Compound 8.52, N′-(5-(6-acetyl-7-amino-5-((1R,3s,5S)-8-(2-hydroxyacetyl)-8-azabicyclo[3.2.1]octan-3-yl)pyrazolo[1,5-a]pyrimidin-3-yl)pyridin-2-yl)propionohydrazide] was tested. Which IC50 ([1]; PC-3, PC3 cells) did it give?
**A.** > 10000 nM

**Q.** And the IC50 ([2]; PC-3, PC3 cells)?
**A.** 1000 to 10000 nM

**Q.** Which results are given for `Nc1c(C2CC2)c([C@@H]2C[C@H]3CC[C@@H](C2)N3C(=O)CO)nc2c(-c3ccc(-c4ncc[nH]4)nc3)cnn12` [Compound 6.1, 1-((1R,3s,5S)-3-(3-(6-(1H-imidazol-2-yl)pyridin-3-yl)-7-amino-6-cyclopropylpyrazolo [1,5-a]pyrimidin-5-yl)-8-azabicyclo[3.2.1]octan-8-yl)-2-hydroxyethanone]?
**A.** IC50 ([1]; PC-3, Table 6-1, PC3 cells): 1 to 100 nM; IC50 ([2]; PC-3, Table 6-1, PC3 cells): 1 to 100 nM

**Q.** Which results are given for `CS(=O)(=O)c1c([C@@H]2C[C@H]3CC[C@@H](C2)N3S(=O)(=O)c2nnc[nH]2)nc2c(-c3ccc(-c4ccccc4)nc3)cnn2c1N` [Compound 3.26, 5-((1R,3s,5S)-8-(4H-1,2,4-triazol-3-ylsulfonyl)-8-azabicyclo[3.2.1]octan-3-yl)-6-(methylsulfonyl)-3-(6-phenylpyridin-3-yl)pyrazolo[1,5-a]pyrimidin-7-amine]?
**A.** IC50 ([1]; PC-3, Table 3-1, PC3 cells): 1000 to 10000 nM; IC50 ([2]; PC-3, Table 3-1, PC3 cells): 100 to 1000 nM

**Q.** For `Cc1cc(C(=O)N2[C@@H]3CC[C@H]2C[C@H](c2nc4c(-c5ccc(-c6ccccc6)nc5)ccn4c(N)c2S(C)(=O)=O)C3)[nH]n1` [Compound 3.81, ((1R,3s,5S)-3-(7-amino-6-(methyslulfonyl)-3-(6-phenylpyridin-3-yl)pyrazolo[1,5-a]pyrimidin-5-yl)-8-azabicyclo[3.2.1]octan-8-yl)(3-methyl-1H-pyrazol-5-yl)methanone], which IC50 ([1]; PC-3, Table 3-1, PC3 cells) is on record?
**A.** 100 to 1000 nM

**Q.** And the IC50 ([2]; PC-3, Table 3-1, PC3 cells)?
**A.** 100 to 1000 nM

**Q.** For `CS(=O)(=O)c1c([C@@H]2C[C@H]3CC[C@@H](C2)N3C(=O)c2ccn[nH]2)nc2c(-c3cn[nH]c3)cnn2c1N` [Compound 3.117, ((1R,3a,4S)-3-(7-amino-6-(methylsulfonyl)-3-(1H-pyrazol-4-yl)pyrazolo[1,5-a]pyrimidin-5-yl)-8-azabicyclo[3.2.1]octan-8-yl)(1H-pyrazol-5-yl)methanone], which IC50 ([1]; PC-3, Table 3-1, PC3 cells) is on record?
**A.** > 10000 nM

**Q.** And the IC50 ([2]; PC-3, Table 3-1, PC3 cells)?
**A.** > 10000 nM

**Q.** For `CC(=O)c1c([C@@H]2C[C@H]3CC[C@@H](C2)N3C(=O)CO)nc2c(-c3ccc(C(C)(C)O)nc3)cnn2c1N` [Compound 7.8, 1-((1R,3s,5S)-3-(6-acetyl-7-amino-3-(6-(2-hydroxypropan-2-yl)pyridin-3-yl)pyrazolo[1,5-a]pyrimidin-5-yl)-8-azabicyclo[3.2.1]octan-8-yl)-2-hydroxyethanone], which IC50 [1, 3] is on record?
**A.** 100 to 1000 nM

**Q.** What about the IC50 [2, 3] of the same molecule?
**A.** 100 to 1000 nM

**Q.** What does the source list for `CC(=O)c1c(C2CC3COCC(C2)N3C(=O)c2nc[nH]n2)nc2c(-c3cnn(-c4ccccc4)c3)cnn2c1N` (stereo not shown) [Compound 8.26, 1-(5-(9-(1H-1,2,4-triazole-3-carbonyl)-3-oxa-9-azabicyclo[3.3.1]nonan-7-yl)-7-amino-3-(1-phenyl-1H-pyrazol-4-yl)pyrazolo[1,5-a]pyrimidin-6-yl)ethanone]?
**A.** IC50 ([1]; PC-3, PC3 cells): 100 to 1000 nM; IC50 ([2]; PC-3, PC3 cells): 1 to 100 nM

**Q.** Which results are given for `COc1ccc(-c2ccc(-c3cnn4c(N)c(S(C)(=O)=O)c([C@@H]5C[C@H]6CC[C@@H](C5)N6C(=O)c5nnc[nH]5)nc34)cn2)cc1Cl` [Compound 3.51, ((1R,3s,5S)-3-(7-amino-3-(6-(3-chloro-4-methoxyphenyl)pyridin-3-yl)-6-(methylsulfonyl)pyrazolo[1,5-a]pyrimidin-5-yl)-8-azabicyclo[3.2.1]octan-8-yl)(4H-1,2,4-triazol-3-yl)methanone]?
**A.** IC50 ([1]; PC-3, Table 3-1, PC3 cells): 1 to 100 nM; IC50 ([2]; PC-3, Table 3-1, PC3 cells): 1 to 100 nM

**Q.** `CC(=O)c1c([C@@H]2C[C@H]3CC[C@@H](C2)N3C(=O)c2nnc[nH]2)nc2c(-c3ccc(-c4ccccn4)nc3)cnn2c1N` [Compound 1.1.146, 1-(3-(2,2′-bipyridin-5-yl)-5-((1R,3s,5S)-8-(4H-1,2,4-triazole-3-carbonyl)-8-azabicyclo[3.2.1]octan-3-yl)-7-aminopyrazolo[1,5-a]pyrimidin-6-yl)ethanone] was tested. Which IC50 [1, 3] did it give?
**A.** 1 to 100 nM

**Q.** What about the IC50 [2, 3] of the same molecule?
**A.** 1 to 100 nM

**Q.** `COCC(=O)N1[C@@H]2CC[C@H]1C[C@H](c1nc3c(-c4ccc(-c5ncc[nH]5)nc4)cnn3c(N)c1C(C)=O)C2` [Compound 6.16, 1-((1R,3s,5S)-3-(3-(6-(1H-imidazol-2-yl)pyridin-3-yl)-6-acetyl-7-aminopyrazolo[1,5-a]pyrimidin-5-yl)-8-azabicyclo[3.2.1]octan-8-yl)-2-methoxyethanone] was tested. Which IC50 ([1]; PC-3, Table 6-1, PC3 cells) did it give?
**A.** 1 to 100 nM

**Q.** What about the IC50 ([2]; PC-3, Table 6-1, PC3 cells) of the same molecule?
**A.** 1 to 100 nM

**Q.** With `CS(=O)(=O)c1c([C@@H]2C[C@H]3CC[C@@H](C2)N3C(=O)c2nnc[nH]2)nc2c(-c3ccc(OC4CCC4)nc3)cnn2c1N` [Compound 8.53, ((1R,3s,5S)-3-(7-amino-3-(6-cyclobutoxypyridin-3-yl)-6-(methylsulfonyl)pyrazolo[1,5-a]pyrimidin-5-yl)-8-azabicyclo[3.2.1]octan-8-yl)(4H-1,2,4-triazol-3-yl)methanone] as the molecule, how does the IC50 ([1]; PC-3, PC3 cells) read?
**A.** 1000 to 10000 nM

**Q.** And the IC50 ([2]; PC-3, PC3 cells)?
**A.** 1000 to 10000 nM

**Q.** What does the source list for `COc1ccc(-c2ccc(-c3cnn4c(N)cc([C@@H]5C[C@H]6CC[C@@H](C5)N6C(=O)CO)nc34)cn2)cc1CO` [Compound 2.7, 1-((1R,3s,5S)-3-(7-amino-3-(6-(3-(hydroxymethyl)-4-methoxyphenyl)pyridin-3-yl)pyrazolo[1,5-a]pyrimidin-5-yl)-8-azabicyclo[3.2.1]octan-8-yl)-2-hydroxyethanone]?
**A.** IC50 [1, 3]: 100 to 1000 nM; IC50 [2, 3]: 100 to 1000 nM

Reference: patent publication US9227971B2, “Pyrazolo[1,5-a]pyrimidine compounds as mTOR inhibitors” (Merck Sharp & Dohme Corp., priority 2010, dated 2016)
